The nature of series [1]: Half life in ICR mouse at 0.5 mg/kg, iv by LC-MS/SM analysis. Format: ADME, organism-based. The conditions noted are these: in vivo.
Series [2] in a line: Oral bioavailability in ICR mouse at 5 mg/kg by LC-MS/SM analysis. The series is classed as ADME, organism-based. To be noted: in vivo.
A short description of series [3]: Cmax in ICR mouse at 5 mg/kg, po by LC-MS/SM analysis. To be noted: in vivo. The series is classed as ADME, organism-based. The arrangement: dose 5 mg/kg, route oral.
The target of series [4] is PI3-kinase p110-delta/p85-alpha (Homo sapiens, UniProt O00329). The experiment in a line: Inhibition of recombinant human N-terminal GST-tagged full-length p110delta/human p85alpha expressed in Sf9 insect cells using PIP2 as substrate by ADP-glo assay.
Series [5] in a line: Apparent permeability across apical to basolateral side in human Caco2 cells measured after 90 mins by LC-MS/MS analysis. To be noted: Caco-2. (Passage across Caco-2 layers is used to estimate intestinal permeability.)
Series [6] addresses PI3-kinase p110-alpha/p85-alpha (Homo sapiens, UniProt P42336). The experiment in a line: Inhibition of recombinant human N-terminal FLAG-tagged full-length p110alpha/human p85alpha expressed in Sf9 insect cells using PIP2 as substrate by kinase-glo assay. A general note: Kinase-Glo reads ATP consumption through a luciferase reaction.
The target in series [7] is Phosphatidylinositol 4,5-bisphosphate 3-kinase catalytic subunit gamma isoform (Homo sapiens, UniProt P48736). The experiment in a line: Inhibition of recombinant human N-terminal His-tagged full-length p120gamma expressed in Sf9 insect cells using PIP2 as substrate by ADP-glo assay.
For series [8] the following is noted: simulated gi fluid, pH 6.5, 1 h.
Description: Thermodynamic solubility of the compound in pH 6.5 FaSSIF incubated for 1 hr by LC-MS/MS analysis
Series [9] can be described thus: Volume of distribution at steady state in ICR mouse at 0.5 mg/kg, iv by LC-MS/SM analysis. Format: ADME, organism-based. To be noted: in vivo, read-out: Vdss.
In another series the target is PI3K p110 beta/p85 alpha (Homo sapiens, UniProt P42338). The experiment in a line: Inhibition of recombinant human N-terminal FLAG-tagged full-length p110beta/human p85alpha expressed in Sf9 insect cells using PIP2 as substrate by ADP-glo assay. Background: ADP-Glo first removes unused ATP, then detects ADP through luciferase.
The conditions of series [10]: buffer, pH 7.4, 1 h.
Description: Thermodynamic solubility of the compound in pH 7.4 PBS incubated for 1 hr by LC-MS/MS analysis
Series [11] is described as follows: Clearance in ICR mouse at 0.5 mg/kg, iv by LC-MS/SM analysis. Format: ADME, organism-based. To be noted: in vivo.
Series [12] is filed under the species Mus musculus. The experiment in a line: Inhibition of class 1 PI3K in mouse Mlg2908 cells assessed as reduction in p70S6K phosphorylation measured after 3 hrs by Western blot analysis. Format: cell-based.
The species entered for series [13] is Mus musculus. The experiment in a line: Inhibition of class 1 PI3K in mouse Mlg2908 cells assessed as reduction in AKT phosphorylation at T308 residue measured after 3 hrs by Western blot analysis. The series is classed as cell-based.
The species named for series [14] is Mus musculus. Description: Inhibition of class 1 PI3K in mouse Mlg2908 cells assessed as reduction in AKT phosphorylation at S473 residue measured after 3 hrs by Western blot analysis. The series is classed as cell-based.
Series [15] can be described thus: Kinetic solubility of the compound in pH 7.4 incubated for 120 mins by HPLC-MS/MS analysis. To be noted: buffer, pH 7.4, 2 h.
The nature of series [16]: AUC (0 to infinity) in ICR mouse at 0.5 mg/kg, iv by LC-MS/SM analysis. The arrangement: dose 0.5 mg/kg, time infinity, route intravenous. Format: ADME, organism-based. To be noted: in vivo.
For series [17], the species on record is Mus musculus. Description: Inhibition of class 1 PI3K in mouse Mlg2908 cells assessed as reduction in S6RP phosphorylation measured after 3 hrs by Western blot analysis. Format: cell-based.
Series [18] is described as follows: Half life in ICR mouse at 5 mg/kg, po by LC-MS/SM analysis. Format: ADME, organism-based. To be noted: in vivo.
The nature of series [19]: AUC (0 to infinity) in ICR mouse at 5 mg/kg, po by LC-MS/SM analysis. The arrangement: dose 5 mg/kg, route oral, time infinity. To be noted: in vivo. The series is classed as ADME, organism-based.
Series [20] in a line: Apparent permeability across basolateral to apical side in human Caco2 cells measured after 90 mins by LC-MS/MS analysis. The conditions noted are these: Caco-2.
Series [21] in a line: Antifibrotic activity against mouse Mlg2908 cells assessed as reduction in cell viability measured after 72 hrs by MTT assay. Format: functional, cell-based.

PI3-kinase p110-delta/p85-alpha, sequence (P27986 whole entry): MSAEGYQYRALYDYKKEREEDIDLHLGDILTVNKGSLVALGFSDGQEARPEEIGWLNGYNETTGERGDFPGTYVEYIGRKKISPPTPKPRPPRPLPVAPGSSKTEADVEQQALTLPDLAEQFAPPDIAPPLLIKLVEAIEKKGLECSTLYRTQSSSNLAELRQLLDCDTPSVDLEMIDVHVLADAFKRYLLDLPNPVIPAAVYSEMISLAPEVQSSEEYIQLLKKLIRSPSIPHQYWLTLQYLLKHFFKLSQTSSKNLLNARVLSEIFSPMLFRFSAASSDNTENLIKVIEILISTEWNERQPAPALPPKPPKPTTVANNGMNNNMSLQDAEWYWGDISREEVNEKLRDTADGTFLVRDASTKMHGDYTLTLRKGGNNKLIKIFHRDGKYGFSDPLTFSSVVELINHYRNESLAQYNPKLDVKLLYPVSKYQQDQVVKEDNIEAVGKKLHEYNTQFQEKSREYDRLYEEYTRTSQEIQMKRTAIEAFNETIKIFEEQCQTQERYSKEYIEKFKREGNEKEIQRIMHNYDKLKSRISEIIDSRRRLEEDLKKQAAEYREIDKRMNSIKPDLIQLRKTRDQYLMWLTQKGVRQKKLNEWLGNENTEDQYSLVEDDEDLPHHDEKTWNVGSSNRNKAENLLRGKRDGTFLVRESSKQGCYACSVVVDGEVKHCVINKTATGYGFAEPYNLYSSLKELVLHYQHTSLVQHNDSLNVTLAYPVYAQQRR
PI3-kinase p110-delta/p85-alpha, sequence (O00329 whole entry): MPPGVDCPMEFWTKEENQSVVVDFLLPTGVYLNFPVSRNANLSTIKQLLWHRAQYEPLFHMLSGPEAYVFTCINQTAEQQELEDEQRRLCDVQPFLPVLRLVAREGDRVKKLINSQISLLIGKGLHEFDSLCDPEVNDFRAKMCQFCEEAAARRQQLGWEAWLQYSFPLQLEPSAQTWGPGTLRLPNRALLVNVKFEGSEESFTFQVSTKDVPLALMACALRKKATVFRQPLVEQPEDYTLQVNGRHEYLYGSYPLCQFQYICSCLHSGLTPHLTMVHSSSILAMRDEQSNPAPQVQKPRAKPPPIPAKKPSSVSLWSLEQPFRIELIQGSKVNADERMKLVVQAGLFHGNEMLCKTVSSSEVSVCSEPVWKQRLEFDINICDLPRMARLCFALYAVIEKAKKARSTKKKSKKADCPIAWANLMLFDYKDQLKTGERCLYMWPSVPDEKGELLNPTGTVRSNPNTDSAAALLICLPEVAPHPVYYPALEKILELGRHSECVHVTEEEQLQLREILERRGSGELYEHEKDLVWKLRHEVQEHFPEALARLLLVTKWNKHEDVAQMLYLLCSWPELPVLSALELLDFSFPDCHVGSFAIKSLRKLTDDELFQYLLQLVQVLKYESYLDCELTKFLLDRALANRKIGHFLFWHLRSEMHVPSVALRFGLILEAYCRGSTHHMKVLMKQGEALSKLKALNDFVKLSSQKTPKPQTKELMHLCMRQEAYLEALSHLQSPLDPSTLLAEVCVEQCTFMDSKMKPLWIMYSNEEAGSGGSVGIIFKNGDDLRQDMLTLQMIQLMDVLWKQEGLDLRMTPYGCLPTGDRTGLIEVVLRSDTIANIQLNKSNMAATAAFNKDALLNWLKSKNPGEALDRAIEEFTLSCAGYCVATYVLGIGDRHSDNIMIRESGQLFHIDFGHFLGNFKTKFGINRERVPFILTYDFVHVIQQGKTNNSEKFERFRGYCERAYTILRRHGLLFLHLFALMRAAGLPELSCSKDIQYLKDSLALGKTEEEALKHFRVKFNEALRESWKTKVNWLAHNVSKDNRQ
PI3K p110 beta/p85 alpha, sequence (P27986 whole entry): as the sequence (P27986 whole entry) above
PI3K p110 beta/p85 alpha, sequence (P42338 whole entry): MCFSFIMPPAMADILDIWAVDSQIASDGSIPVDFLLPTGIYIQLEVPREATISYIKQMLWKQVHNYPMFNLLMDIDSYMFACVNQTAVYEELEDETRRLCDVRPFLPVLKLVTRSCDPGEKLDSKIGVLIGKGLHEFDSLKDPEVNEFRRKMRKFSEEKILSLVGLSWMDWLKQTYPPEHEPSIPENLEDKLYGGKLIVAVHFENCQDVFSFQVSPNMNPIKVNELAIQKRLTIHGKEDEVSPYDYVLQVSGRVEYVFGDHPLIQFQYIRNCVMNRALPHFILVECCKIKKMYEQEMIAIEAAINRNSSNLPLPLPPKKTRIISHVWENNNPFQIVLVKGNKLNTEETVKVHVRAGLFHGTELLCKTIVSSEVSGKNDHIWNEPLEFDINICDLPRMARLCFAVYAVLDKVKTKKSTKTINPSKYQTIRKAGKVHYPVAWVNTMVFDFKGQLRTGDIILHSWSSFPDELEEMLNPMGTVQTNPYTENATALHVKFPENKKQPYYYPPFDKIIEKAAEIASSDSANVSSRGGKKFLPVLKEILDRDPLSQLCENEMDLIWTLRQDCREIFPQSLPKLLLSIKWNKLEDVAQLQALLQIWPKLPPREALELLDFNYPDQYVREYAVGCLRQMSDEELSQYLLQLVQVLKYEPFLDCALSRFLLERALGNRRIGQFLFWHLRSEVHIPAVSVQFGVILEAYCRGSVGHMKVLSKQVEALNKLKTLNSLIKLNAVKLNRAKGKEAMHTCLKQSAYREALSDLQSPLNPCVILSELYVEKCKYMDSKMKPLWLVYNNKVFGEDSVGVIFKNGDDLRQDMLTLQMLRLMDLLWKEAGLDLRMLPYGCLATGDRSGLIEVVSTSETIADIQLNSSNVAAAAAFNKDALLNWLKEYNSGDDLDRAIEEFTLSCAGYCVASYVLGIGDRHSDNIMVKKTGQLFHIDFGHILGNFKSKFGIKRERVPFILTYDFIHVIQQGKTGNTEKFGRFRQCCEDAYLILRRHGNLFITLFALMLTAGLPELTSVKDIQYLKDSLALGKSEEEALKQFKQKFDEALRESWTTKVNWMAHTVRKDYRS
PI3-kinase p110-alpha/p85-alpha, sequence (P27986 whole entry, canonical isoform): as the sequence (P27986 whole entry) above
PI3-kinase p110-alpha/p85-alpha, sequence (P42336 whole entry, canonical isoform): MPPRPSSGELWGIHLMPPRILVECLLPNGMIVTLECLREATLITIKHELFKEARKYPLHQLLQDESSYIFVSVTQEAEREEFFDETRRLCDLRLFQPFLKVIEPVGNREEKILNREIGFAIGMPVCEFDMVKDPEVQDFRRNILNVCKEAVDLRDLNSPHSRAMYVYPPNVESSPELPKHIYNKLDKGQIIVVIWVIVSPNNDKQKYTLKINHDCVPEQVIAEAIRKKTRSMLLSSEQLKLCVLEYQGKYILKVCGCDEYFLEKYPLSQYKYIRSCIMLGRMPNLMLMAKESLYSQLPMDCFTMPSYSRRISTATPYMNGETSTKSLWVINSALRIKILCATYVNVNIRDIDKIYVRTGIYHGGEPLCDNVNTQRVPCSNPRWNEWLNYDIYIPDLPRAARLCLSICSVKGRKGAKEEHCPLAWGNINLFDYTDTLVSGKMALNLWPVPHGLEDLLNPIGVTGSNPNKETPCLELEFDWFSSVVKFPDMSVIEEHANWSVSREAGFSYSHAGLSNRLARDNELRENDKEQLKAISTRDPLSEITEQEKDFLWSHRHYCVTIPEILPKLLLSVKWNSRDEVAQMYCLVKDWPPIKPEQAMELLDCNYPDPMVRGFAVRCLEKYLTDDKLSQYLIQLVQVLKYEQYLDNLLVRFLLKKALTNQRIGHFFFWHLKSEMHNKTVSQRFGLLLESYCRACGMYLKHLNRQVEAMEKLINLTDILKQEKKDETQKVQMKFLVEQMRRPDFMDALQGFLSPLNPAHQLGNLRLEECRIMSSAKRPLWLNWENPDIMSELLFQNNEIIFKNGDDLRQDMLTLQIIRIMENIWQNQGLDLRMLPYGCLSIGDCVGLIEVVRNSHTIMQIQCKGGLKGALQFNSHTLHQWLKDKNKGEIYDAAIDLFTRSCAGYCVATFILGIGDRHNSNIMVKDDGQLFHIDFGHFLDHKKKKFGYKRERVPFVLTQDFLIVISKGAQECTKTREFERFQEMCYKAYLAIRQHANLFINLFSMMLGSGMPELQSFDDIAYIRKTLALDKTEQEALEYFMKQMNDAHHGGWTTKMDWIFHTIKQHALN
Phosphatidylinositol 4,5-bisphosphate 3-kinase catalytic subunit gamma isoform, sequence (P48736 whole entry, canonical isoform): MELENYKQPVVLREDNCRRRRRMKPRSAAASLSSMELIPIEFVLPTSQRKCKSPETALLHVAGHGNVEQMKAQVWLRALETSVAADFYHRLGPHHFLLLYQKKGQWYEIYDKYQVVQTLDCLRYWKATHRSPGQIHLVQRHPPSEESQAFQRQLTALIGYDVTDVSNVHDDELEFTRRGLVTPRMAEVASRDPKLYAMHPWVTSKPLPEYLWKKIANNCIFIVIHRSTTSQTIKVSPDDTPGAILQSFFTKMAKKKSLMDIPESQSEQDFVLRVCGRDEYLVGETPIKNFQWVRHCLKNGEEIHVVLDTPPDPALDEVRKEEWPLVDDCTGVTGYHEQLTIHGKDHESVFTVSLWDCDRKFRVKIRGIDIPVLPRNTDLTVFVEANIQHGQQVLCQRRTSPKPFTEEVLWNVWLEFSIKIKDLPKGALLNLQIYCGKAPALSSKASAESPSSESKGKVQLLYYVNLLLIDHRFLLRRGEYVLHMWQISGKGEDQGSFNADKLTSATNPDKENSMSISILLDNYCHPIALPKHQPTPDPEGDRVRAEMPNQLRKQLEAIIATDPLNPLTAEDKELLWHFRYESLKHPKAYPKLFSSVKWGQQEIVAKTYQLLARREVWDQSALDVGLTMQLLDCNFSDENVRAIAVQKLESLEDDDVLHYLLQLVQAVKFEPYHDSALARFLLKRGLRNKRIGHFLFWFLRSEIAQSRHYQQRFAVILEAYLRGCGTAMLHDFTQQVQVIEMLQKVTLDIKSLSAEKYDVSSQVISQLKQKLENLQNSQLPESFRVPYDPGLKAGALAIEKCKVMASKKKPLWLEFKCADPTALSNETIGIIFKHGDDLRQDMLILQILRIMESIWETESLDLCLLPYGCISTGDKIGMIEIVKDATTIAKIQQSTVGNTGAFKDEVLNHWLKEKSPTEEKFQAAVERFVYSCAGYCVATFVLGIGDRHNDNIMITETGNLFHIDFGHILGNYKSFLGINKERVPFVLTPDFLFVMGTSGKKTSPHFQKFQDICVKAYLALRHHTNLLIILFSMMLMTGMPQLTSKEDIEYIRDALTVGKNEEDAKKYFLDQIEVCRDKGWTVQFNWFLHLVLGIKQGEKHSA

As usually defined, the half-life is the time in which the quantity being followed falls by half. A lower half-life goes with rapid decline. The term bioavailability denotes the share of a dose that reaches the circulation, judged against a reference dose that is usually intravenous. A lower bioavailability goes with little systemic uptake. For orientation: Cmax means the highest concentration seen after dosing. One may read the IC50 as the concentration at which inhibition is half-maximal. By Papp A→B is commonly meant the apparent permeability from the apical to the basolateral side of a cell layer. The clearance is the rate of elimination divided by the concentration. What is called AUC(0-inf) is the area under the concentration-time curve extrapolated to infinity. Low values mean low exposure, high ones high exposure. A word on the Papp B→A: it is the apparent permeability from the basolateral to the apical side of a cell layer. On to `COc1ncc(-c2cc(OC3CCOCC3)c3ncnc(C)c3c2)cc1NS(=O)(=O)c1ccc(F)cc1F`, for which the half-life was 0.92 h in [1] and 5.57 h in [18]. The bioavailability in series [2] is 15.8%. The peak concentration (Cmax) in [3] amounted to 1210 ng/mL. The half-inhibitory concentration (IC50) in [4] amounted to 520 pM; in series [6] it was 600 pM; in series [7], 2100 pM; at PI3K p110 beta/p85 alpha it was 540 pM; in [21], 3000 pM. In addition, the apical-to-basolateral permeability (Papp A→B) at 1.5 h in series [5] was 42 ×10⁻⁶ cm/s. For the same compound, the Therm_solubility result in [8] and in [10] was “Soluble” in each case. Further, in series [9], the Vd was found to be 0.368 L/kg. In series [11], this compound had a clearance of 4.58 mL/min/kg. For the same compound, the inhibition entry in the series filed under Mus musculus [12], in the series filed under Mus musculus [13], in the series filed under Mus musculus [14] and in the series listed under Mus musculus [17] was “Dose-dependent effect” in each case. Also, in series [15], the Kinetic_solubility entry is “Soluble”. Moreover, the AUC(0-inf) in series [16] came out at 1820 ng·h/mL; in series [19] it was 3240 ng·h/mL. Further, the Papp B→A at 1.5 h in [20] amounted to 39 ×10⁻⁶ cm/s.

The values are drawn from ChEMBL document CHEMBL4321792, “Discovery of 4-Methylquinazoline Based PI3K Inhibitors for the Potential Treatment of Idiopathic Pulmonary Fibrosis” (J Med Chem, 2019).
